Among the test systems are A549; RXF 393; M14; 786-0; UO-31; SF-539; OVCAR-5; SK-MEL-5; NCI-H460; SW-620; Hs-578T; UACC-257; SNB-75; HCT-15; OVCAR-8; ACHN; CCRF-CEM; MCF7; OVCAR-4; HL-60.
Common to all, as to assay: growth of human tumour cells (NCI), 48 h

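Following 48 hours of exposure in 96-well plates, responses at five concentrations were used to interpolate endpoints linearly. GI50 marks 50% less growth.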 The source made the active and inactive calls. No stated cut-off is given here; in the data, active = GI50 up to about 1.1 µM and inactive = higher.

`CC(NC(=O)C(OC(=O)C(C)NC(=O)OC(C)(C)C)C(C)C)C(=O)OC(C(=O)O)C(C)C` (configuration not stated): the GI50 in the test on A549, with RXF 393, in the test with M14, in the test on 786-0, with UO-31 and in the test with SF-539 was > 100 µM (inactive) throughout. Moreover, the GI50 in the test on OVCAR-5, in the test on SK-MEL-5, with NCI-H460, in the test on SW-620, in the test on Hs-578T and in the test with UACC-257 was > 100 µM (inactive) each time. The GI50 was > 100 µM (inactive) in the test on SNB-75, more than 100 µM in the test with HCT-15, > 100 µM (inactive) with OVCAR-8 and > 100 µM (inactive) in the test with ACHN.
For the compound `CCOC(=O)Cc1c(C)c2ccc(OC(C)=O)c(OC(C)=O)c2oc1=O`, the GI50 in the test on CCRF-CEM was 4.09 µM (inactive); in the test on A549 it was 21.9 µM (inactive); in the test with MCF7, 24.6 µM (inactive); in the test on M14, 17.9 µM (inactive); in the test on 786-0 it was 27.7 µM (inactive); in the test on UO-31, 13.9 µM (inactive). For the same compound, the GI50 is 53.6 µM (inactive) in the test on OVCAR-5; 19.5 µM (inactive) in the test on SK-MEL-5; 20.7 µM (inactive) with SW-620; 32.4 µM (inactive) with Hs-578T; 14.8 µM (inactive) in the test on UACC-257; 19.4 µM (inactive) in the test on SNB-75. For the same compound, the GI50 with HCT-15 is 18.7 µM; with OVCAR-4 it was 16.5 µM (inactive); in the test with OVCAR-8 it was 18.6 µM (inactive); in the test with ACHN, 33.8 µM (inactive).
Take `COc1cc(NC(C)=O)ccc1C(=O)NN1C(=O)C(Cl)C1c1ccco1` (configuration not stated): the GI50 in the test on CCRF-CEM is 65.3 µM (inactive); in the test with HL-60, 41.7 µM (inactive); with A549, 92.5 µM (inactive); in the test on RXF 393, > 100 µM (inactive); in the test on MCF7 it was 58.3 µM (inactive); with M14 it was > 100 µM (inactive). Further, the GI50 in the test with 786-0 was > 100 µM (inactive); in the test on UO-31 it was > 100 µM (inactive); in the test with SF-539 it was > 100 µM (inactive); in the test on OVCAR-5 it was > 100 µM (inactive); in the test on SK-MEL-5, 76.4 µM (inactive); with SW-620, > 100 µM (inactive). Besides, the GI50 is > 100 µM (inactive) in the test with SNB-75; more than 100 µM in the test on HCT-15; > 100 µM (inactive) with OVCAR-4; 87.3 µM (inactive) in the test with OVCAR-8; 86.3 µM (inactive) with ACHN.
On to `N#C/C(=C\c1cc(Br)c(O)c(Br)c1)c1ccccn1`, for which the GI50 in the test with CCRF-CEM is 34.1 µM (inactive); in the test on HL-60, > 100 µM (inactive); in the test on A549, 59.6 µM (inactive); in the test with RXF 393, 91.4 µM (inactive); with MCF7 it was 89.3 µM (inactive); in the test with M14, 72.8 µM (inactive). Moreover, the GI50 in the test on 786-0 is 49.5 µM (inactive); in the test with UO-31, 35.9 µM (inactive); in the test with SF-539, 84.7 µM (inactive); in the test on OVCAR-5, 51.4 µM (inactive); with SK-MEL-5, 41 µM (inactive); in the test with NCI-H460, 48.6 µM (inactive). Also, the GI50 was 63.5 µM (inactive) with SW-620; 35.4 µM (inactive) in the test with UACC-257; > 100 µM (inactive) in the test with SNB-75; 41.2 µM in the test with HCT-15; 61 µM (inactive) in the test with OVCAR-4; 94.8 µM (inactive) in the test on OVCAR-8. The GI50 in the test on ACHN is 90.6 µM (inactive).
Turning to `Cc1ccc(S(=O)(=O)OCC(=O)O)cc1`, the GI50 with CCRF-CEM, with HL-60, in the test on A549, in the test with RXF 393, in the test on M14 and in the test on 786-0 was > 100 µM (inactive) throughout. The GI50 with UO-31, with OVCAR-5, in the test with SK-MEL-5, with NCI-H460, with SW-620 and in the test with Hs-578T was > 100 µM (inactive) each time. For the same compound, the GI50 in the test on UACC-257 is > 100 µM (inactive); in the test with HCT-15 it was more than 100 µM; with OVCAR-4, > 100 µM (inactive); in the test on OVCAR-8, > 100 µM (inactive); in the test with ACHN, > 100 µM (inactive).
For `CCCCCCCCCCCCN1[C@H]2CCC[C@H]2C(O)[C@@H]2CCC[C@@H]21` (some centres not stated), the GI50 in the test on CCRF-CEM was > 100 µM (inactive); in the test on HL-60, 33.8 µM (inactive); in the test with A549 it was > 100 µM (inactive); in the test on RXF 393 it was > 100 µM (inactive); with M14, > 100 µM (inactive); in the test on 786-0, > 100 µM (inactive). The GI50 with OVCAR-5 is > 100 µM (inactive); with SK-MEL-5 it was 58.2 µM (inactive); in the test on NCI-H460 it was > 100 µM (inactive); with SW-620, > 100 µM (inactive); with Hs-578T, > 100 µM (inactive); in the test with UACC-257 it was > 100 µM (inactive). Further, the GI50 in the test on SNB-75 was > 100 µM (inactive); in the test on HCT-15 it was 56.4 µM; in the test on OVCAR-4, > 100 µM (inactive); in the test on OVCAR-8, > 100 µM (inactive); in the test with ACHN, > 100 µM (inactive).
Turning to `CN(N)c1cc(=O)[nH]c(=O)[nH]1`, the GI50 in the test on CCRF-CEM is > 100 µM (inactive); with HL-60, 43.4 µM (inactive); with A549 it was 54 µM (inactive); in the test on 786-0 it was > 100 µM (inactive); with SF-539 it was > 100 µM (inactive); in the test with SK-MEL-5, > 100 µM (inactive). For the same compound, the GI50 was > 100 µM (inactive) in the test on NCI-H460; > 100 µM (inactive) in the test with SW-620; 51.2 µM (inactive) in the test on Hs-578T; > 100 µM (inactive) with UACC-257; more than 100 µM in the test with HCT-15; > 100 µM (inactive) in the test on OVCAR-4. The GI50 in the test on OVCAR-8 and in the test with ACHN was > 100 µM (inactive) throughout.
For the compound `Cc1c(NC(=S)N/N=C\C(=N/NC(=S)Nc2c(C)n(C)n(-c3ccccc3)c2=O)c2ccccc2)c(=O)n(-c2ccccc2)n1C`, the GI50 in the test with A549, in the test on RXF 393, in the test on M14, in the test on 786-0, with UO-31 and in the test with SF-539 was > 100 µM (inactive) throughout. In addition, the GI50 in the test on OVCAR-5, with SK-MEL-5, in the test on NCI-H460, in the test with SW-620, in the test on Hs-578T and with UACC-257 was > 100 µM (inactive) in each case. For the same compound, the GI50 in the test on SNB-75 was > 100 µM (inactive); in the test on HCT-15, more than 100 µM; in the test with OVCAR-4 it was > 100 µM (inactive); in the test on ACHN, > 100 µM (inactive).
Consider `C[C@@H]1CC(=O)C[C@@H]2CC[C@H]3[C@@H]4CC[C@H](OC(=O)c5cccc6cc7ccccc7nc56)[C@H]4CC[C@@H]3[C@H]21`, for which the GI50 is 25.1 µM (inactive) in the test with A549; 18.1 µM (inactive) in the test with RXF 393; 15.5 µM (inactive) in the test on M14; 11.4 µM (inactive) with 786-0; 16.9 µM (inactive) with UO-31; 16.7 µM (inactive) in the test on SF-539. In addition, the GI50 is 18.8 µM (inactive) in the test with OVCAR-5; 13.2 µM (inactive) in the test on SK-MEL-5; 14.1 µM (inactive) in the test with NCI-H460; 17.4 µM (inactive) with SW-620; 21.6 µM (inactive) with Hs-578T; 14.3 µM (inactive) in the test with UACC-257. Besides, the GI50 was 15.6 µM (inactive) in the test with SNB-75; 14.2 µM in the test with HCT-15; 13.6 µM (inactive) in the test with OVCAR-4; 16 µM (inactive) in the test on OVCAR-8; 15.7 µM (inactive) in the test with ACHN.
For the compound `COC(=O)C(=CNC(N)=O)C(=O)OC`, the GI50 in the test on CCRF-CEM, in the test on A549, in the test on MCF7, with M14, with 786-0 and in the test with UO-31 was > 100 µM (inactive) throughout. In addition, the GI50 was > 100 µM (inactive) with SF-539; > 100 µM (inactive) in the test with OVCAR-5; > 100 µM (inactive) in the test on SK-MEL-5; > 100 µM (inactive) in the test with NCI-H460; > 100 µM (inactive) in the test on SW-620; 63.4 µM (inactive) in the test on Hs-578T. For the same compound, the GI50 in the test on UACC-257 is > 100 µM (inactive); with HCT-15 it was more than 100 µM; in the test on OVCAR-8, > 100 µM (inactive); in the test on ACHN it was > 100 µM (inactive).
Consider `CCOP(=O)(/C=C/n1ccc(=O)[nH]c1=O)OCC`, for which the GI50 in the test with CCRF-CEM, in the test with HL-60, with A549, in the test on RXF 393, in the test with MCF7 and in the test with M14 was > 100 µM (inactive) each time. In addition, the GI50 in the test on 786-0, in the test on SF-539, in the test with OVCAR-5, with SK-MEL-5, with NCI-H460 and with SW-620 was > 100 µM (inactive) in each case. Moreover, the GI50 in the test on UACC-257 was > 100 µM (inactive); with SNB-75 it was > 100 µM (inactive); in the test with HCT-15, more than 100 µM; with OVCAR-4, > 100 µM (inactive); in the test on OVCAR-8, > 100 µM (inactive); in the test on ACHN, > 100 µM (inactive).
For the compound `Nc1ccc(S(=O)(=O)Nc2nccs2)cc1` [SULFATHIAZOLE], the GI50 in the test with CCRF-CEM, in the test on HL-60, in the test on A549, with RXF 393, in the test on MCF7 and in the test on M14 was > 100 µM (inactive) throughout. The GI50 in the test with 786-0, with UO-31, in the test on SF-539, in the test with OVCAR-5, in the test with SK-MEL-5 and in the test with NCI-H460 was > 100 µM (inactive) in each case. Moreover, the GI50 in the test with SW-620 was > 100 µM (inactive); with UACC-257, > 100 µM (inactive); in the test on SNB-75, 17 µM (inactive); in the test on HCT-15 it was more than 100 µM; in the test on OVCAR-4, > 100 µM (inactive); in the test on OVCAR-8, > 100 µM (inactive). Further, in the test on ACHN, the GI50 was > 100 µM (inactive).

Values taken from ChEMBL document CHEMBL1201862, “PubChem BioAssay data set” (2004).
